From the NIST ThermoML archive (doi:10.1016/j.tca.2013.08.031)
± gives the expanded uncertainty stated by the source.

Conditions: for mass density: isochoric method

CCC(C)O (centres undefined) [butan-2-ol]
mass density (306.95 K, Liquid): 794.06 ± 0.24 kg/m3 | mass density (335.35 K, Liquid): 769.05 ± 0.24 kg/m3 | mass density (367.55 K, Liquid): 735.98 ± 0.23 kg/m3 | mass density (408.51 K, Liquid): 683.53 ± 0.22 kg/m3 | mass density (433.35 K, Liquid): 648.53 ± 0.22 kg/m3 | mass density (463.85 K, Liquid): 598.18 ± 0.22 kg/m3 | mass density (492.87 K, Liquid): 538.17 ± 0.24 kg/m3 | mass density (504.95 K, Gas): 76.44 ± 0.16 kg/m3 | mass density (514.26 K, Gas): 95.93 ± 0.18 kg/m3 | mass density (515.15 K, Liquid): 474.07 ± 0.31 kg/m3 | mass density (522.2 K, Gas): 117 ± 0.26 kg/m3 | mass density (527.92 K, Gas): 142.27 ± 0.45 kg/m3 | mass density (529.41 K, Liquid): 403.55 ± 0.49 kg/m3 | mass density (533.73 K, Gas): 184.89 ± 1.1 kg/m3 | mass density (534.55 K, Liquid): 347.06 ± 2.8 kg/m3 | mass density (534.68 K, Gas): 198.25 ± 2.3 kg/m3 | mass density (535.83 K, Gas): 245.67 ± 3.2 kg/m3 | mass density (535.83 K, Liquid): 301.19 ± 2.8 kg/m3 | mass density (535.89 K, Liquid): 286.65 ± 3.5 kg/m3 | mass density (535.93 K, Liquid): 284.93 ± 3.5 kg/m3 | mass density (535.94 K, Liquid): 279.19 ± 3.8 kg/m3 | mass density (535.95 K, Liquid): 276.45 ± 3.9 kg/m3 | Critical density (Liquid, DSC): 276.4 ± 21 kg/m3 | Critical temperature (Liquid, DTA): 535.95 ± 0.39 K
